Measured values as given in PMC6792352, “Limited Chemical Structural Diversity Found to Modulate Thyroid Hormone Receptor in the Tox21 Chemical Library” (Environmental Health Perspectives, 2019).
Structures can show the parent of a compound that is named as a salt.

Assay: in vitro
Settings: rat, gh3-tre-luc cells

| Compound | CC50 at 24 h (AC50 (uM) modified / 1000) [µM] | other results |
| --- | --- | --- |
| Cc1c[nH]c(=S)[nH]c1=O [5-Methyl-2-thiouracil] | > 90 | – |
| Cc1cc(N)no1 [5-Methyl-3-isoxazolamine] | > 100 | – |
| CC(C)CCCC(=O)O [5-Methylhexanoic acid] | > 90 | – |
| Cc1ccc(N)nc1 [5-Methylpyridin-2-amine] | > 90 | – |
| Cc1cccc2nccnc12 [5-Methylquinoxaline] | > 90 | – |
| CC(=O)OC(OC(C)=O)c1ccc([N+](=O)[O-])o1 [5-Nitro-2-furanmethanediol diacetate] | 14 | – |
| O=[N+]([O-])c1ccc2c3c(cccc13)CC2 [5-Nitroacenaphthene] | > 90 | – |
| O=[N+]([O-])c1ccc2[nH]ncc2c1 [5-Nitroindazole] | > 90 | – |
| O=C1Nc2ccc([N+](=O)[O-])cc2C1=O [5-Nitroisatin] | > 90 | – |
| O=C(O)c1cc(C(=O)O)cc([N+](=O)[O-])c1 [5-Nitroisophthalic acid] | > 90 | – |
| c1ccc(-c2nnn[nH]2)cc1 [5-Phenyl-1H-tetrazole] | > 90 | – |
| C=CC1CC2C=CC1C2 (centres unmarked) [5-Vinyl-2-norbornene] | > 90 | – |
| CC1CCc2nccnc21 (centres unmarked) [5H-5-Methyl-6,7-dihydrocyclopenta[b]pyrazine] | > 90 | – |
| CC(C)c1cccc(C(C)C)c1N1C(=O)c2ccc(O)cc2C1=O [5HPP-33] | > 90 | – |
| C[C@@]12CCC[C@H]1[C@@H]1CC[C@H]3C[C@@H](O)CC[C@]3(C)[C@H]1CC2 [5alpha-Androstan-3beta-ol] | > 50 | – |
| C[C@]12CCC(=O)C[C@@H]1CC[C@@H]1[C@@H]2CC[C@]2(C)[C@@H](O)CC[C@@H]12 [5alpha-Dihydrotestosterone] | – | CC50 at 24 h (AC50 (uM) modified / 1000, Tox21_110001=Tox21_111056, viability, 1 nM T3 present, 24 h): > 50 µM; CC50 at 24 h (AC50 (uM) modified / 1000, Tox21_110001=Tox21_200987, viability, 1 nM T3 present, 24 h): > 90 µM; CC50 at 24 h (AC50 (uM) modified / 1000, Tox21_110001=Tox21_303655, viability, 1 nM T3 present, 24 h): > 60 µM |
| COc1cc2nc(O)nc(O)c2cc1OC [6,7-Dimethoxyquinazoline-2,4(1H,3H)-dione] | > 20 | – |
| CC(=O)CC/C=C(\C)CCC=C(C)C [6,10-Dimethyl-5,9-undecadiene-2-one] | > 90 | – |
| CC(C)c1ccc2ncccc2c1 [6-(1-Methylethyl)quinoline] | > 90 | – |
| CC(=O)c1cc2c(cc1C)C(C)(C)C(C)CC2(C)C (centres unmarked) [6-Acetyl-1,1,2,4,4,7-hexamethyltetralin] | – | CC50 at 24 h (AC50 (uM) modified / 1000, Tox21_110001=Tox21_301256, viability, 1 nM T3 present, 24 h): 45.6 µM |
| CC(=O)c1ccc2c(c1)CCCC2 [6-Acetyl-1,2,3,4-tetrahydronaphthalene] | > 90 | – |
| Cn1c(N)c(N=O)c(=O)n(C)c1=O [6-Amino-1,3-dimethyl-5-nitroso-2,4(1H,3H)-pyrimidinedione] | > 90 | – |

| Compound | CC50 at 24 h (AC50 (uM) modified / 1000) [µM] | other results |
| --- | --- | --- |
| Nc1cc(Cl)cc(S(=O)(=O)O)c1O [6-Amino-4-chloro-1-phenol-2-sulfonic acid] | > 90 | – |
| Nc1ccc2cc(S(=O)(=O)O)cc(O)c2c1 [6-Amino-4-hydroxynaphthalene-2-sulfonic acid] | > 90 | – |
| NCCCCCC(=O)O [6-Aminocaproic acid] | > 20 | – |
| Nc1ccc2cc(S(=O)(=O)O)ccc2c1 [6-Aminonaphthalene-2-sulfonic acid] | > 90 | – |
| CC1(C)S[C@@H]2[C@H](N)C(=O)N2[C@H]1C(=O)O [6-Aminopenicillanic acid] | > 20 | – |
| Nc1cnn([C@@H]2O[C@H](CO)[C@@H](O)[C@H]2O)c(=O)n1 [6-Azacytidine] | > 90 | – |
| CC(=O)OC[C@H]1O[C@@H](n2ncc(=O)[nH]c2=O)[C@H](OC(C)=O)[C@@H]1OC(C)=O [6-Azaribine] | > 50 | – |
| Oc1nc2ccc(Cl)cc2o1 [6-Chloro-2,3-dihydrobenzoxazol-2-one] | > 90 | – |
| O=C(O)c1cccc(Cl)n1 [6-Chloro-2-picolinic acid] | > 90 | – |
| OCCCCCCCl [6-Chlorohexan-1-ol] | > 100 | – |
| Cc1cc(O)c(C(C)C)cc1Cl [6-Chlorothymol] | 66.1 | – |
| O=C(O)c1ccc2cc(O)ccc2c1 [6-Hydroxy-2-naphthoic acid] | > 90 | – |
| Sc1ncnc2nc[nH]c12 [6-Mercaptopurine monohydrate] | > 90 | – |
| Cc1ccc2oc(=O)ccc2c1 [6-Methyl coumarin] | > 90 | – |
| Cc1ccc2c(c1)CCCN2 [6-Methyl-1,2,3,4-tetrahydroquinoline] | > 90 | – |
| Cc1nc(N)nc(N)n1 [6-Methyl-1,3,5-triazine-2,4-diamine] | > 90 | – |
| Cc1cc(=O)[nH]c(=S)[nH]1 [6-Methyl-2-thiouracil] | > 90 | – |
| CC(=O)CCC=C(C)C [6-Methyl-5-hepten-2-one] | > 90 | – |
| Cc1ccc2ncccc2c1 [6-Methylquinoline] | > 90 | – |
| O=[N+]([O-])c1ccc2[nH]cnc2c1 [6-Nitrobenzimidazole] | > 90 | – |
| O=c1[nH][nH]c(=O)c2cc([N+](=O)[O-])ccc12 [6-Nitrophthalhydrazide] | > 90 | – |
| O=[N+]([O-])c1ccc2ncccc2c1 [6-Nitroquinoline] | > 90 | – |

| Compound | CC50 at 24 h (AC50 (uM) modified / 1000) [µM] | other results |
| --- | --- | --- |
| CCCCCc1cccc(=O)o1 [6-Pentyl-2H-pyran-2-one] | > 90 | – |
| CCCCCC1CCCC(=O)O1 (centres unmarked) [6-Pentyltetrahydro-2H-pyran-2-one] | > 90 | – |
| Nc1nc(N)nc(-c2ccccc2)n1 [6-Phenyl-1,3,5-triazine-2,4-diamine] | > 90 | – |
| CCCc1cc(=O)[nH]c(=S)[nH]1 [6-Propyl-2-thiouracil] | > 90 | – |
| Nc1nc2nc[nH]c2c(=S)[nH]1 [6-Thioguanine] | > 90 | – |
| OCCC(F)(F)C(F)(F)C(F)(F)C(F)(F)C(F)(F)C(F)(F)F [6:2 Fluorotelomer alcohol] | > 90 | – |
| C=C(C)C(=O)OCCC(F)(F)C(F)(F)C(F)(F)C(F)(F)C(F)(F)C(F)(F)F [6:2 Fluorotelomer methacrylate] | > 90 | – |
| Cc1cc(=O)oc2cc(N(C)C)ccc12 [7-(Dimethylamino)-4-methylcoumarin] | > 90 | – |
| Nc1ccc2c(O)cc(S(=O)(=O)O)cc2c1 [7-Amino-4-hydroxynaphthalene-2-sulfonic acid] | 89.3 | – |
| CC(=O)OCC1=C(C(=O)O)N2C(=O)[C@@H](N)[C@H]2SC1 [7-Aminocephalosporanic acid] | > 20 | – |
| CCN(CC)c1ccc2c(C)cc(=O)oc2c1 [7-Diethylamino-4-methylcoumarin] | > 90 | – |
| CCCCC(CC)CCC(CC(C)C)OS(=O)(=O)O (centres unmarked) [7-Ethyl-2-methyl-4-undecanolsulfate, sodium salt] | > 90 | – |
| COC(C)(C)CCCC(C)CC=O (centres unmarked) [7-Methoxy-3,7-dimethyloctanal] | > 90 | – |
| Cc1ccc2c(c1)OCC(=O)CO2 [7-Methyl-2H-1,5-benzodioxepin-3(4H)-one] | > 90 | – |
| Cn1cnc2ncnc(N)c21 [7-Methyladenine] | > 50 | – |
| Cc1cccc2c1cc1ccc3cccc4ccc2c1c34 [7-Methylbenzo(a)pyrene] | > 90 | – |
| Cc1ccc2cccnc2c1 [7-Methylquinoline] | > 90 | – |
| Cn1c(=O)c2[nH]c(Br)nc2n(C)c1=O [8-Bromotheophylline] | > 50 | – |
| O=[N+]([O-])c1cc([N+](=O)[O-])c2ccc(S(=O)(=O)O)cc2c1O [8-Hydroxy-5,7-dinitro-2-naphthalenesulfonic acid] | 65.4 | – |
| O=S(=O)(O)c1ccc(O)c2ncccc12 [8-Hydroxyquinoline-5-sulfonic acid hydrate (1:x)] | > 90 | – |
| COc1c2occc2cc2ccc(=O)oc12 [8-Methoxypsoralen] | > 50 | – |
| Cc1cccc2cccnc12 [8-Methylquinoline] | > 90 | – |

| Compound | CC50 at 24 h (AC50 (uM) modified / 1000) [µM] | other results |
| --- | --- | --- |
| O=[N+]([O-])c1cccc2cccnc12 [8-Nitroquinoline] | > 90 | – |
| OCCC(F)(F)C(F)(F)C(F)(F)C(F)(F)C(F)(F)C(F)(F)C(F)(F)C(F)(F)F [8:2 Fluorotelomer alcohol] | > 90 | – |
| Brc1c2ccccc2c(Br)c2ccccc12 [9,10-Dibromoanthracene] | > 5 | – |
| O=C1CCCc2c1cc1ccc3cccc4ccc2c1c34 [9,10-Dihydrobenzo[a]pyren-7(8H)-one] | > 90 | – |
| Nc1c2ccccc2nc2ccccc12 [9-Aminoacridine, monohydrochloride, monohydrate] | > 90 | – |
| O=C(O)c1c2ccccc2cc2ccccc12 [9-Anthracenecarboxylic acid] | > 90 | – |
| OCc1c2ccccc2cc2ccccc12 [9-Anthracenemethanol] | > 90 | – |
| Brc1c2ccccc2cc2ccccc12 [9-Bromoanthracene] | > 90 | – |
| Brc1cc2ccccc2c2ccccc12 [9-Bromophenanthrene] | > 90 | – |
| N#Cc1c2ccccc2cc2ccccc12 [9-Cyanoanthracene] | > 90 | – |
| N#Cc1cc2ccccc2c2ccccc12 [9-Cyanophenanthrene] | > 90 | – |
| C=CCCCCCCCCO [9-Decen-1-ol] | > 90 | – |
| C=CCCCCCCCCOC(C)=O [9-Decenyl acetate] | > 90 | – |
| CCn1c2ccccc2c2cc([N+](=O)[O-])ccc21 [9-Ethyl-3-nitro-9H-carbazole] | > 90 | – |
| O=C1c2ccccc2-c2ccccc21 [9-Fluorenone] | > 90 | – |
| Cn1cnc2c(O)nc(N)nc21 [9-Methylguanine] | > 90 | – |
| O=[N+]([O-])c1c2ccccc2cc2ccccc12 [9-Nitroanthracene] | > 90 | – |
| CCCCCCCC/C=C\CCCCCCCC(=O)OCCCC [9-Octadecenoic acid (9Z)-, butyl ester] | > 20 | – |
| Oc1cc2ccccc2c2ccccc12 [9-Phenanthrol] | 6.81 | – |
| c1ccc2c(c1)CCc1ccccc1N2 [10,11-Dihydro-5H-dibenz[b,f]azepine] | > 90 | – |
| O=Cc1c2ccccc2c(Cl)c2ccccc12 [10-Chloro-9-anthraldehyde] | > 50 | – |
